Test results published in patent US20170050966A1, “INHIBITING THE TRANSIENT RECEPTOR POTENTIAL A1 ION CHANNEL” (HYDRA BIOSCIENCES, INC., priority 2014, published 2017).
≈ marks a conversion by molar mass, not a printed value. Like-named read-outs stand apart in the source and are kept apart here.

Key:
[1] = Solubility in Normal Ringer Solution; type: physicochemical; conditions: aqueous buffer, kinetic from dmso stock, pH 7.4, room temperature
Experimental: Compounds of the invention were also tested for solubility in Normal Ringer Solution. […] Following vortex and incubation for 40 minutes at room temperature, solutions were filtered, quenched with acetonitrile, and analyzed by liquid chromatography. Solubility limits were determined by comparison to a standard curve. […] Solubility is reported as “greater than” if the observed increase between the last 2 dilutions tested is greater than 2-fold.

[2] = Metabolic stability in liver microsomes; type: in vitro ADME, human; conditions: 1 μM test compound; for half-life at 1 μM: human, liver microsomes, 37° C.
Experimental: (§1) Metabolic stability of the compounds of Formula (I) was determined by standard liver microsome assays. Briefly, metabolic stability was tested by adding the compound to be tested dissolved in DMSO to human, dog, or rat liver microsomes. Assays were run with a starting concentration of 1 μM test compound. The reaction was initiated by addition of nicotinamide adenine dinucleotide phosphate[…] (NADPH) regeneration components at 37° C., at which time an aliquot was immediately quenched in an ice-cold acetonitrile/methanol/water solution. Reaction mixture was incubated at 37° C. on a shaker, and additional aliquots were taken at 7, 15, 30 and 60 minutes. Following quench and centrifugation, samples were analyzed on HPLC/MS/MS.

human TRPA1 (hTRPA1) = target: T1, human TRPA1 (hTRPA1) (Homo sapiens, UniProt O75762); test: Inhibition of human TRPA1, whole-cell patch clamp; type: cell-based; conditions: antagonist effect, whole cell patch configuration; read-out: hTRPA1
T1 construct: expressed in transfected cells
T1 sequence (O75762 whole entry): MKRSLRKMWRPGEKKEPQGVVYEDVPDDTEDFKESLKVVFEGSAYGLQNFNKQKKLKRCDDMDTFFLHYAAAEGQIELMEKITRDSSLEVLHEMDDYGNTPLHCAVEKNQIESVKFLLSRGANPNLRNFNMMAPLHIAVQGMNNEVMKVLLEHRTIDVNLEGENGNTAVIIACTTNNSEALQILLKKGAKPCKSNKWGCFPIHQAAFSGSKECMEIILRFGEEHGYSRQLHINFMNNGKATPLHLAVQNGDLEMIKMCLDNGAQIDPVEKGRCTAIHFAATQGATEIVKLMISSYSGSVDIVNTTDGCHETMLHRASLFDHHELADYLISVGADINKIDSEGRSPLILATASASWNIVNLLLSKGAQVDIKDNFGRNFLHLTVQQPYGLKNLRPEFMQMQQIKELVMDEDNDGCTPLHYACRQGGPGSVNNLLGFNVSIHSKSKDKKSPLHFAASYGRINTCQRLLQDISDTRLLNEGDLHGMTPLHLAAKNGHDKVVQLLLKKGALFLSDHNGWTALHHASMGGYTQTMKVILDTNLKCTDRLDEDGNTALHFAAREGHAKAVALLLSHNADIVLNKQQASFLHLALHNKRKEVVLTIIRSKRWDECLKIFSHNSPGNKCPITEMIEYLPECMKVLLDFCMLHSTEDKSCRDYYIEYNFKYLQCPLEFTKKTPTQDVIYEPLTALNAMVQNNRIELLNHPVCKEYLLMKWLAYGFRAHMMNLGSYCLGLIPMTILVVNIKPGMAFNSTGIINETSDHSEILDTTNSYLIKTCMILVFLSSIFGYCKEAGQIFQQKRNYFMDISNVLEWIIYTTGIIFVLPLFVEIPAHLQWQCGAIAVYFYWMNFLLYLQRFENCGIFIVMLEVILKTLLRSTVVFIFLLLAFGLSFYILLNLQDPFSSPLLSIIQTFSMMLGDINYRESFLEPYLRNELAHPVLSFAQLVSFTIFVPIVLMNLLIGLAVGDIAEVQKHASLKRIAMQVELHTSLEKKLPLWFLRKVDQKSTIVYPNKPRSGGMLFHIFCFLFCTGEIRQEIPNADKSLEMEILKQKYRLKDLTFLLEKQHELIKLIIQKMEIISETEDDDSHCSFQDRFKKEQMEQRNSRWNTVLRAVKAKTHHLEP
Experimental: Data for TRPA1 inhibition was obtained by this method for the indicated compounds of Formula (I), with the relevant data included in Table 14 below. All currents were recorded in whole-cell configuration using EPC-9 and EPC-10 amplifiers and Patchmaster software (HEKA). […] The standard pipette solution consisted of 140 mM CsAsp, 10 mM EGTA, 10 mM HEPES, […], 1.91 mM CaCl2, and up to 0.3 mM Na2GTP, with pH adjusted to 7.2 with CsOH. In addition, a solution containing 145 mM CsCl, 10 mM HEPES, 10 mM EGTA, and up to 0.3 mM Na2GTP and 1 mM MgCl2 (pH 7.2 adjusted with CsOH) can be used. The standard bath solution contained 150 mM NaCl, 10 mM HEPES, 10 mM glucose, 4.5 mM KCl, 1 mM EGTA, 3 mM MgCl2, with pH adjusted to 7.4 with NaOH. In some instances, 2 mM CaCl2 was added in place of EGTA and the concentration of MgCl2 was reduced to 1 mM.
Data were collected either by continuous recordings at −60 mV or by applying voltage ramps from a holding potential of 0 mV every 4 s. Continuous recordings were collected at 400 Hz and digitally filtered off-line at 10 Hz for presentation. Voltage ramps were applied from −100 mV to 100 mV over the course of 400 ms, and data were collected at 10 kHz and filtered at […]. Inward and outward currents were analyzed from the ramps at −80 and 80 mV, respectively. Liquid junction potential correction was not used.
Solutions were switched using a gravity-fed continuous focal perfusion system. To achieve rapid temperature changes, two temperature control, and perfusion systems were employed simultaneously. For temperatures greater than or equal to 22° C., a Warner Instruments bipolar temperature controller (TC-344B) and inline heater (SHM-8) were used. […] Temperatures were confirmed using a thermistor (Warner Instruments, TA-29), with temperatures at the recorded cell estimated to be within +/−2° C. of those reported.
The antagonist effects of compounds of Formula (I) against human TRPA1 (“hTRPA1”) in a whole cell patch configuration were evaluated using the in vitro assay protocol described above.

[3] = Metabolic stability in liver microsomes; type: in vitro ADME
Experimental: as §1

[4] = Oral bioavailability of solutions in non-fasted rats; conditions: rat, in vivo, oral solution, read-out: Rat % F
Experimental: Early bioavailability studies in rat were conducted with solutions of the compounds of the invention. Compounds were delivered via oral administration as a solution in an appropriate excipient. Example formulations include, but are not limited to: 4% DMSO, 10% Solutol HS-15, and 86% water or 4% DMSO, 5% Tween, 25% Cremophor EL. Target concentrations were typically 1 mg/mL, and administered via oral gavage to non-fasted rats. The absolute bioavailability is the dose-corrected area under the curve (AUC) non-intravenous divided by the dose corrected AUC intravenous. The formula for calculating F for a drug administered by the oral route (PO) is given below:
% F=AUC PO×Dose IV/AUC IV×Dose PO

[5] = Kinetic solubility in buffered solutions; type: physicochemical; conditions: aqueous buffer, kinetic from dmso stock, 24 hours ambient
Experimental: The solubilities of the compounds of Formula (I) were tested using the procedure outlined in Kerns, E. H., J Pharm Sci (2001) 90:1838-1858, incorporated herein by reference and described below. Data for solubility was obtained by this method for compounds of Formula (I) and included in Table 3. The chromatographic data was performed by HPLC using an Xbridge Shield RP18 column with the following column dimensions: 4.6×30 mm, 3.5 μm. The mobile phase consisted of deionized water (MPA) with trifluoroacetic acid added in at 0.1% (v/v) (MPC) and HPLC-grade acetonitrile (MPB). The mobile phase flow rate was 2.5 mL/min with the column and sampling operating at ambient temperature. UV detection was set to 280 nm.
Samples for analysis of the compounds of Formula (I) were prepared at a % v/v=1/19 (i.e., 10 μL of the stock solution into 190 μL of buffer) by spiking stock solutions of the compounds of Formula (I) into buffered solutions. Three buffered solution systems were prepared: pH 4.0 prepared from 50 mM sodium acetate in a 5% dextrose in water solution, pH 7.4 prepared from 75 mM sodium phosphate in a 1:1 ratio of sterilized water for injection to a 5% dextrose in water solution, and pH 9.0 prepared from 50 mM sodium bicarbonate in a 1:2 ratio of sterilized water for injection to a 5% dextrose in water solution. The samples were incubated on a microplate shaker at 300 rpm for 24 hours at ambient temperature. Following incubation, the samples were centrifuged for five minutes at 13 k rpm at ambient temperature. The resulting supernantant was extracted for HPLC analysis.

CYP2B6 = CYP2B6 (Homo sapiens, UniProt P20813); test: in vitro; conditions: probe Buproprion
Sequence of CYP2B6 (P20813 whole entry): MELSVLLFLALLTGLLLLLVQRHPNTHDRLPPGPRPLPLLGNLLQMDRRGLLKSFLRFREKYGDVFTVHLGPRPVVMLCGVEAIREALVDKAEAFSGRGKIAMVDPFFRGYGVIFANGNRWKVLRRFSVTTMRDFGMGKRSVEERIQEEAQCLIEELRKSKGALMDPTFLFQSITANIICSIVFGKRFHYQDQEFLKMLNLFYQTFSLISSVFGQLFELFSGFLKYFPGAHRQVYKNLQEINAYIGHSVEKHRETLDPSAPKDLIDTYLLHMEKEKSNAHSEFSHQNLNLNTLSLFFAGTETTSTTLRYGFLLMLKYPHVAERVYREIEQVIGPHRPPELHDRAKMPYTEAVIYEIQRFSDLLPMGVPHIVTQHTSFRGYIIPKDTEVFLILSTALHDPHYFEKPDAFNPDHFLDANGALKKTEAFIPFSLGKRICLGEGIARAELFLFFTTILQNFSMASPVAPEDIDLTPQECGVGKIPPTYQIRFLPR

CYP2C8 = CYP2C8 (Homo sapiens, UniProt P10632); test: in vitro; conditions: probe Amodiaquine
Sequence of CYP2C8 (P10632 whole entry): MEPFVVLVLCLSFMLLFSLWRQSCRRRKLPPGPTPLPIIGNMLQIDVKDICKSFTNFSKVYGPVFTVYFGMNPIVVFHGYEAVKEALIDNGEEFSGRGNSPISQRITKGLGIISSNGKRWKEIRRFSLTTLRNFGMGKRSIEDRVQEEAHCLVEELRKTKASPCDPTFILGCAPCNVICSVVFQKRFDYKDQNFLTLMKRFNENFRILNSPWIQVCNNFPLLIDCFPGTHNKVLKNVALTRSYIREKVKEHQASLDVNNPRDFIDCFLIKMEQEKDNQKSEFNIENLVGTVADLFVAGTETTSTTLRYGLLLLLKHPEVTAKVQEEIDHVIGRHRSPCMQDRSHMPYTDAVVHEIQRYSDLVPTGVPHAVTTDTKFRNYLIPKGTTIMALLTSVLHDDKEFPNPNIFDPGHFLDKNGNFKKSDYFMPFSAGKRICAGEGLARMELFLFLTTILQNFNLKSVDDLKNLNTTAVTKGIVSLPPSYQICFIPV

in vitro = conditions: plasma
Experimental: With this method, free compound is separated from protein-bound compound by dialysis across a semi-permeable membrane.
The protein binding was tested at a concentration of 1 μM. Pooled human, cynomolgus monkey, dog, and rat K2EDTA plasma was thawed and centrifuged at 2000×g for 10 minutes at 4° C. to remove particulates; any lipid on the top of the supernatant was also removed by aspiration. The plasma was warmed to 37° C. for 10 minutes before use. Test compounds were spiked into 2 ml plasma in a polypropylene plate to a final concentration of 1 μM. Triplicate 400 μl aliquots of spiked plasma were transferred into the Thermo RED dialysis units and dialyzed against 600 μl of PBS buffer. […] After 6 hours dialysis, triplicate 50 μl aliquots were removed from the RED plate, matrix-matched with either PBS buffer or blank plasma, as appropriate, and quenched with 4 volumes of ACN containing an internal standard. The extracted samples were then centrifuged at 2000×g for 5 minutes at 4° C. The supernatant (50 μl) was removed and diluted with 100 μl water prior to LC/MS/MS bioanalysis.

[6] = dog liver microsomes, both sexes, read-out: Half-Life both sexes
[7] = rat liver microsomes, both sexes, read-out: Half-Life Both sexes
[8] = rat liver microsomes, male, read-out: Male Half-Life
[9] = sodium acetate buffer, pH 4.0, 50 mM sodium acetate, read-out: pH 4.0 solubility
[10] = sodium bicarbonate buffer, pH 9.0, 50 mM sodium bicarbonate, read-out: pH 9.0 solubility
[11] = sodium phosphate buffer, pH 7.4, 75 mM sodium phosphate, read-out: pH 7.4 solubility

solubility at 40 min [1] | half-life at 1 μM [2] | IC50 (human TRPA1 (hTRPA1)) | half-life at 1 μM [3, 7] | Structure (SMILES) | other results
> 18.2 µM | 50 min | 96.1 nM | 63.8 min | C[C@H]1CCCN1c1ncc(-c2nccc(NC(=O)Cn3cnc4c3c(=O)n(C)c(=O)n4C)n2)cn1 [Compound 19, (S)-2-(1,3-dimethyl-2,6-dioxo-2,3-dihydro-1H-purin-7(6H)-yl)-N-(2′-(2-methylpyrrolidin-1-yl)-2,5′-bipyrimidin-4-yl)acetamide] | Human Liver Microsomes Hepatic Clearance [2]: 9 mL/min/kg; Hepatic Clearance ([3]; dog liver microsomes): 11 mL/min/kg; half-life at 1 μM [3, 6]: 44 min; Male Hepatic Clearance ([3]; rat liver microsomes, male): 25 mL/min/kg; half-life at 1 μM [3, 8]: 36 min; bioavailability [4]: 77%; solubility kinetic at 24 h [5, 9]: 6 µg/mL (≈ 12.6 µM); solubility kinetic at 24 h [5, 10]: 3.5 µg/mL (≈ 7.35 µM); solubility kinetic at 24 h [5, 11]: 10 µg/mL (≈ 21 µM)
> 47 µM | 52.4 min | 24.9 nM |  | C[C@@H](C(=O)Nc1ccnc(-c2cnc(N3CCC(C(F)(F)F)C3)nc2)n1)n1cnc2c1c(=O)n(C)c(=O)n2C (stereo partly drawn) [Compound 16, (2S)-2-(1,3-dimethyl-2,6-dioxo-2,3-dihydro-1H-purin-7(6H)-yl)-N-(2′-(3-(trifluoromethyl)pyrrolidin-1-yl)-2,5′-bipyrimidin-4-yl)propanamide] | 
 |  |  |  | Clc1ccccc1CN1CCc2sccc2C1 [Ticlopidine, reference compound] | inhibition at 10 µM (CYP2B6): 98.2%
> 77.6 µM | > 60 min | 62.9 nM | 60 min | C[C@@H](C(=O)Nc1ccnc(-c2cnc(N3CC(C(F)(F)F)C3)nc2)n1)n1cnc2c1c(=O)n(C)c(=O)n2C [Compound 13, (S)-2-(1,3-dimethyl-2,6-dioxo-2,3-dihydro-1H-purin-7(6H)-yl)-N-(2′-(3-(trifluoromethyl)azetidin-1-yl)-2,5′-bipyrimidin-4-yl)propanamide] | 
4.37 µM (≈ 2.32 µg/mL) | 37.8 min | 663 nM | 113 min | C[C@@H](C(=O)Nc1ccnc(-c2cnc(N3CCC[C@H]3C(F)(F)F)nc2)n1)n1cnc2[nH]c(=O)n(C)c(=O)c21 [Compound 5, (S)-2-(1-methyl-2,6-dioxo-2,3-dihydro-1H-purin-7(6H)-yl)-N-(2′-((S)-2-(trifluoromethyl)pyrrolidin-1-yl)-[2,5′-bipyrimidin]-4-yl)propanamide] | half-life at 1 μM [3, 6]: > 120 min
 |  |  |  | O=c1c(O)c(-c2ccc(O)c(O)c2)oc2cc(O)cc(O)c12 [Quercetin, reference compound] | inhibition at 10 µM (CYP2C8): 61.5%
> 15.1 µM |  |  |  | C[C@@H](C(=O)Nc1ccnc(-c2cnc(N3CC4C(C3)C4(F)F)nc2)n1)n1cnc2c1c(=O)n(C)c(=O)n2C (some centres unmarked) [Compound 26] | 
 | 30 min | 51 nM |  | C[C@H]1CCCN1c1ncc(-c2nccc(NC(=O)[C@H](C)n3cnc4c3c(=O)n(C)c(=O)n4C)n2)cn1 [Compound 21, (S)-2-(1,3-dimethyl-2,6-dioxo-2,3-dihydro-1H-purin-7(6H)-yl)-N-(2′-((S)-2-methylpyrrolidin-1-yl)-[2,5′-bipyrimidin]-4-yl)propanamide] | Human Liver Microsomes Hepatic Clearance [2]: 10.5 mL/min/kg; Female Hepatic Clearance ([3]; dog liver microsomes, female): 8 mL/min/kg; half-life at 1 μM ([3]; dog liver microsomes, female, read-out: Female Half-Life): 66 min; Hepatic Clearance ([3]; rat liver microsomes): 11 mL/min/kg; Male Hepatic Clearance ([3]; rat liver microsomes, male): 34 mL/min/kg; half-life at 1 μM [3, 8]: 16 min; solubility kinetic at 24 h [5, 9]: 34 µg/mL (≈ 69.3 µM); solubility kinetic at 24 h [5, 10]: 10.5 µg/mL (≈ 21.4 µM); solubility kinetic at 24 h [5, 11]: 20 µg/mL (≈ 40.8 µM)
16.3 µM (≈ 7.96 µg/mL) | 88.8 min | 26.7 nM | 72.7 min | C[C@@H](C(=O)Nc1ccnc(-c2cnc(N3CC4CC4C3)nc2)n1)n1cnc2c1c(=O)n(C)c(=O)n2C (stereo partly drawn) [Compound 15, (2S)—N-(2′-(3-azabicyclo[3.1.0]hexan-3-yl)-2,5′-bipyrimidin-4-yl)-2-(1,3-dimethyl-2,6-dioxo-2,3-dihydro-1H-purin-7(6H)-yl)propanamide] | bioavailability [4]: 35%
~23 µM (≈ 13.4 µg/mL) | 27.4 min | 29.7 nM | 118 min | C[C@@H](C(=O)Nc1ccnc(-c2cnc(N3CCC[C@H]3C(F)(F)F)nc2)n1)n1cnc2c1c(=O)n(C)c(=O)n2C(F)F [Compound 6, (S)-2-(3-(difluoromethyl)-1-methyl-2,6-dioxo-2,3-dihydro-1H-purin-7(6H)-yl)-N-(2′-((S)-2-(trifluoromethyl)pyrrolidin-1-yl)-[2,5′-bipyrimidin]-4-yl)propanamide] | 
 |  |  |  | CC(=O)CC(c1ccccc1)c1c(O)c2ccccc2oc1=O (centres unmarked) [Warfarin, reference compound] | fraction unbound at 6 h, 1 μM (in vitro; beagle, dog): 0.065; fraction unbound at 6 h, 1 μM (in vitro; cynomolgus monkey): 0.011
